# Data: patent publication US20260325533A1, “CDK INHIBITOR COMPOUNDS” (ALEKSIA THERAPEUTICS, INC., priority 2023, published 2026)
# pIC50: −log10 of the molar value. Like-named read-outs stand apart in the source and are kept apart here.
# Columns and labels:
# Format in all cases: biochemical
# CDK6/CCND1 = CDK6/CCND1 (Homo sapiens, UniProt Q00534); experiment: CDK6 homogeneous time-resolved fluorescence (HTRF) kinase assay; conditions: CDK6/CCND
# In short: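 Enzyme pre-incubated 20 min at 23 °C with compound, then reacted 60 min at 23 °C with 1 mM ATP and 50 nM ULight-4E-BP1 (Thr37/46) peptide; 1 nM enzyme, 1% DMSO. EDTA-stopped, Eu-anti-phospho antibody TR-FRET read (665 nm or 665/615 ratio); 11-point half-log titration from 10 μM gave IC50.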
# CDK2/CCNE1 = CDK2/CCNE1 (Homo sapiens, UniProt P24941); experiment: CDK2 homogeneous time-resolved fluorescence (HTRF) kinase assay; conditions: CDK2/CCNE
# In short: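 CDK2/CCNE1 (3 nM) preincubated 20 min at 23 °C with compound, then reacted 60 min at 23 °C with 1 mM ATP and 50 nM ULight-4E-BP1 (Thr37/46) peptide. Stopped with EDTA, phospho-peptide detected by Eu-anti-phospho antibody (665 nm or 665/615 ratio). IC50 from 11-point half-log titrations typically starting at 10 μM.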
# CDK1/CCNB1 = CDK1/CCNB1 (Homo sapiens, UniProt P06493); experiment: CDK1 homogeneous time-resolved fluorescence (HTRF) kinase assay; conditions: CDK1/CCNB
# In short: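 CDK1/CCNB1 0.5 nM + cpd, 20 min 23 °C; add 1 mM ATP, 50 nM ULight-4E-BP1 peptide, 60 min 23 °C; stop 10 mM EDTA; 2 nM Eu-Ab, 60 min; HTRF 665 nm. 11-pt half-log, top 10 μM typical; IC50.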
# CDK4/CCND3 = CDK4/CCND3 (Homo sapiens, UniProt P11802); experiment: CDK4 homogeneous time-resolved fluorescence (HTRF) kinase assay; conditions: CDK4/CCND
# In short: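 Steps: compound plus 1.5 nM CDK4/CCND3, 20 min, 23 °C; add 1 mM ATP and 50 nM ULight-4E-BP1 (Thr37/46) peptide, 60 min; stop with 10 mM EDTA; add 2 nM Eu anti-phospho antibody, 60 min; read 665 nm. IC50 from 11-point half-log series starting 10 μM.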
# [1] = x = IC50 >250 nM, read-out: CDK6/CCND IC50 (>250 nM column)
# [2] = x = IC50 25-250 nM, read-out: CDK2/CCNE IC50 (25-250 nM)
# [3] = x = IC50 >250 nM, read-out: CDK1/CCNB IC50 (>250 nM column)
# [4] = x = IC50 >250 nM, read-out: CDK4/CCND IC50 (>250 nM column)
# [5] = x = IC50 <25 nM, read-out: CDK2/CCNE IC50 (<25 nM)
# [6] = x = IC50 >250 nM, read-out: CDK2/CCNE IC50 (>250 nM column)
# CDK1/CCNB1, sequence (P06493 whole entry): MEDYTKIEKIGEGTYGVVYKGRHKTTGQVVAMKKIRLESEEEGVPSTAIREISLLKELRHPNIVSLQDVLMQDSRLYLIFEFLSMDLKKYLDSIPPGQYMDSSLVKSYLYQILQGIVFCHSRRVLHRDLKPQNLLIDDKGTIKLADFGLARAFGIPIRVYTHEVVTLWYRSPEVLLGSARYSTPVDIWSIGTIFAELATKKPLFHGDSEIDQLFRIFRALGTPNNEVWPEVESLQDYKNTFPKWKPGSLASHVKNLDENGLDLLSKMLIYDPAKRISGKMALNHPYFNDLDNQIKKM
# CDK1/CCNB1, sequence (P14635 whole entry partner): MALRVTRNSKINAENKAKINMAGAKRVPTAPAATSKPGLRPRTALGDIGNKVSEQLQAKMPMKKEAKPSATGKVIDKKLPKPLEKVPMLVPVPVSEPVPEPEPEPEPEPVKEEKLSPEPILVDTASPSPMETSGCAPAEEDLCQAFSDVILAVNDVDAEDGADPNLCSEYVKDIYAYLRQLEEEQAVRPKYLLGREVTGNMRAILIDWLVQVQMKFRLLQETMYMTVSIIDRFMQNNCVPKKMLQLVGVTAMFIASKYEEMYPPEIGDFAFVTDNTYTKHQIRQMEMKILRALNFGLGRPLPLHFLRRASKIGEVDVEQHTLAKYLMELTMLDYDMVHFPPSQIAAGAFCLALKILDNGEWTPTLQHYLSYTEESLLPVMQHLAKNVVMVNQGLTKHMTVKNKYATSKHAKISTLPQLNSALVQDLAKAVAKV
# CDK6/CCND1, sequence (Q00534 whole entry): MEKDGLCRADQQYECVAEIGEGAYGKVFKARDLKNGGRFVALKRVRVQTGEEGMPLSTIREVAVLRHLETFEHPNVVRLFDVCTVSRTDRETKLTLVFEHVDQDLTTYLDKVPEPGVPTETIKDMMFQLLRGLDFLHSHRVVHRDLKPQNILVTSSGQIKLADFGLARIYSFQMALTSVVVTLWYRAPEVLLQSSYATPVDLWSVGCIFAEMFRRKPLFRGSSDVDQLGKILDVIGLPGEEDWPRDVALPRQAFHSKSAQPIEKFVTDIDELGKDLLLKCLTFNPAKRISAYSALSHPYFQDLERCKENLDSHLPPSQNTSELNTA
# CDK6/CCND1, sequence (P24385 whole entry partner): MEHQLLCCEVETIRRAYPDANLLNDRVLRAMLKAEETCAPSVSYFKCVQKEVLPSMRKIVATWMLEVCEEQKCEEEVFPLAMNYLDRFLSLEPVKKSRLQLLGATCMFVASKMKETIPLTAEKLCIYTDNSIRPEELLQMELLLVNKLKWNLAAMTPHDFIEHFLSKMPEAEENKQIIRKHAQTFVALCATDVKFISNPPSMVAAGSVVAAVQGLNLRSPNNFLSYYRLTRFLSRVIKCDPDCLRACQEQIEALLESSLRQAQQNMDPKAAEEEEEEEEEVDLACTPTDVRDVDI
# CDK4/CCND3, sequence (P11802 whole entry): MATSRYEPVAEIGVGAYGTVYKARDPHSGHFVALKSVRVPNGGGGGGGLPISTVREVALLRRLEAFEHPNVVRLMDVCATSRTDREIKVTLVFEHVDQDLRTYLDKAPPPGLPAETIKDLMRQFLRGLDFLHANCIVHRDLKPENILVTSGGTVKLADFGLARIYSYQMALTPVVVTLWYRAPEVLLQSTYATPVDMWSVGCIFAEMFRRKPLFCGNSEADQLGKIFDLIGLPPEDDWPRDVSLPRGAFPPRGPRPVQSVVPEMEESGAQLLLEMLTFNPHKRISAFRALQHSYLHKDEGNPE
# CDK4/CCND3, sequence (P30281 whole entry partner): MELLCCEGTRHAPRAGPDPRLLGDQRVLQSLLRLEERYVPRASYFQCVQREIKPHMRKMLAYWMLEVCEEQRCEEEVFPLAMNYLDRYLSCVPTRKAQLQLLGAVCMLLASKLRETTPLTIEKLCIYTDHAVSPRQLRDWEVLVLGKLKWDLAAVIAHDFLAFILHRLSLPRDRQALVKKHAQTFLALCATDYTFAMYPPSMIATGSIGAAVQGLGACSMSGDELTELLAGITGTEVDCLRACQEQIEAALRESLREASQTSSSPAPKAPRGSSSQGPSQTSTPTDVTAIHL
SMILES,pIC50 (CDK6/CCND1; [1]),pIC50 (CDK2/CCNE1; [2]),pIC50 (CDK1/CCNB1; [3]),pIC50 (CDK4/CCND3; [4]),"pIC50 (CDK6/CCND1; x = IC50 25-250 nM, read-out: CDK6/CCND IC50 (25-250 nM))",pIC50 (CDK2/CCNE1; [5]),"pIC50 (CDK1/CCNB1; x = IC50 25-250 nM, read-out: CDK1/CCNB IC50 (25-250 nM))","pIC50 (CDK4/CCND3; x = IC50 25-250 nM, read-out: CDK4/CCND IC50 (25-250 nM))",pIC50 (CDK2/CCNE1; [6])
"CC(C)(C#Cc1nccc2cnc(Nc3ccc(S(C)(=O)=O)cc3)cc12)CO [Ex 504, 2,2-dimethyl-4-(7-((4-(methylsulfonyl)phenyl)amino)-2,6-naphthyridin-1-yl)but-3-yn-1-ol]",–,–,–,–,6.60 to 7.60,> 7.60,6.60 to 7.60,6.60 to 7.60,–
"CS(=O)(=O)c1ccc(Nc2cc3c(C#Cc4ccc(N5CCCC(Cl)(Cl)C5=O)cc4)nccc3cn2)cc1 [Ex 506, 3,3-dichloro-1-(4-((7-((4-(methylsulfonyl)phenyl)amino)-2,6-naphthyridin-1-yl)ethynyl)phenyl)piperidin-2-one]",< 6.60,–,< 6.60,< 6.60,–,–,–,–,< 6.60
"CS(=O)(=O)c1ccc(Nc2cc3c(C#Cc4ccnc(F)c4)nccc3cn2)cc1 [Ex 508, 5-((2-fluoropyridin-4-yl)ethynyl)-N-(4-(methylsulfonyl)phenyl)-2,6-naphthyridin-3-amine]",< 6.60,6.60 to 7.60,< 6.60,< 6.60,–,–,–,–,–
"CS(=O)(=O)c1ccc(Nc2cc3c(C#Cc4ccc(C5CC5)nc4)nccc3cn2)cc1 [Ex 517, 5-((6-cyclopropylpyridin-3-yl)ethynyl)-N-(4-(methylsulfonyl)phenyl)-2,6-naphthyridin-3-amine]",< 6.60,6.60 to 7.60,< 6.60,< 6.60,–,–,–,–,–
"CS(=O)(=O)c1ccc(Nc2cc3c(C#Cc4ccc5oc(=O)[nH]c5c4)nccc3cn2)cc1 [Ex 518, 5-((7-((4-(methylsulfonyl)phenyl)amino)-2,6-naphthyridin-1-yl)ethynyl)benzo[d]oxazol-2(3H)-one]",< 6.60,–,< 6.60,< 6.60,–,> 7.60,–,–,–
"CS(=O)(=O)c1ccc(Nc2cc3c(C#Cc4c[nH]c5nc(Cl)ncc45)nccc3cn2)cc1 [Ex 520, 5-((2-chloro-7H-pyrrolo[2,3-d]pyrimidin-5-yl)ethynyl)-N-(4-(methylsulfonyl)phenyl)-2,6-naphthyridin-3-amine]",< 6.60,6.60 to 7.60,< 6.60,< 6.60,–,–,–,–,–
"COC(=O)c1ccc(C#Cc2nccc3cnc(Nc4ccc(S(C)(=O)=O)cc4)cc23)cn1 [Ex 521, methyl 5-((7-((4-(methylsulfonyl)phenyl)amino)-2,6-naphthyridin-1-yl)ethynyl)picolinate]",< 6.60,6.60 to 7.60,< 6.60,< 6.60,–,–,–,–,–
"CS(=O)(=O)c1ccc(Nc2cc3c(C#Cc4c[nH]c5ncccc45)nccc3cn2)cc1 [Ex 522, 5-((1H-pyrrolo[2,3-b]pyridin-3-yl)ethynyl)-N-(4-(methylsulfonyl)phenyl)-2,6-naphthyridin-3-amine]",< 6.60,6.60 to 7.60,< 6.60,< 6.60,–,–,–,–,–
"CS(=O)(=O)c1ccc(Nc2cc3c(C#Cc4cnc(C#N)nc4)nccc3cn2)cc1 [Ex 523, 5-((7-((4-(methylsulfonyl)phenyl)amino)-2,6-naphthyridin-1-yl)ethynyl)pyrimidine-2-carbonitrile]",< 6.60,–,< 6.60,< 6.60,–,–,–,–,< 6.60
"COc1ccnc(C#Cc2nccc3cnc(Nc4ccc(S(C)(=O)=O)cc4)cc23)c1N [Ex 525, 5-((3-amino-4-methoxypyridin-2-yl)ethynyl)-N-(4-(methylsulfonyl)phenyl)-2,6-naphthyridin-3-amine]",< 6.60,6.60 to 7.60,< 6.60,< 6.60,–,–,–,–,–
"COc1ccc(C#Cc2nccc3cnc(Nc4ccc(S(C)(=O)=O)cc4)cc23)c(C)c1 [Ex 527, 5-((4-methoxy-2-methylphenyl)ethynyl)-N-(4-(methylsulfonyl)phenyl)-2,6-naphthyridin-3-amine]",< 6.60,6.60 to 7.60,< 6.60,< 6.60,–,–,–,–,–
"CS(=O)(=O)c1ccc(Nc2cc3c(C#Cc4ccc(=O)n(C(F)F)c4)nccc3cn2)cc1 [Ex 528, 1-(difluoromethyl)-5-((7-((4-(methylsulfonyl)phenyl)amino)-2,6-naphthyridin-1-yl)ethynyl)pyridin-2(1H)-one]",< 6.60,6.60 to 7.60,< 6.60,< 6.60,–,–,–,–,–
"CS(=O)(=O)c1ccc(Nc2cc3c(C#Cc4ccnc(C(F)F)c4)nccc3cn2)cc1 [Ex 529, 5-((2-(difluoromethyl)pyridin-4-yl)ethynyl)-N-(4-(methylsulfonyl)phenyl)-2,6-naphthyridin-3-amine]",< 6.60,6.60 to 7.60,< 6.60,< 6.60,–,–,–,–,–
"CS(=O)(=O)c1ccc(Nc2cc3c(C#Cc4n[nH]c5c4CCC5)nccc3cn2)cc1 [Ex 531, N-(4-(methylsulfonyl)phenyl)-5-((1,4,5,6-tetrahydrocyclopenta[c]pyrazol-3-yl)ethynyl)-2,6-naphthyridin-3-amine]",< 6.60,6.60 to 7.60,< 6.60,< 6.60,–,–,–,–,–

# Continued, values first:
pIC50 (CDK6/CCND1; [1]),pIC50 (CDK2/CCNE1; [2]),pIC50 (CDK1/CCNB1; [3]),pIC50 (CDK4/CCND3; [4]),"pIC50 (CDK6/CCND1; x = IC50 25-250 nM, read-out: CDK6/CCND IC50 (25-250 nM))",pIC50 (CDK2/CCNE1; [5]),"pIC50 (CDK1/CCNB1; x = IC50 25-250 nM, read-out: CDK1/CCNB IC50 (25-250 nM))","pIC50 (CDK4/CCND3; x = IC50 25-250 nM, read-out: CDK4/CCND IC50 (25-250 nM))",pIC50 (CDK2/CCNE1; [6]),SMILES
< 6.60,6.60 to 7.60,< 6.60,< 6.60,–,–,–,–,–,"CS(=O)(=O)c1ccc(Nc2cc3c(C#Cc4cccn5ncnc45)nccc3cn2)cc1 [Ex 502, 5-([1,2,4]triazolo[1,5-a]pyridin-8-ylethynyl)-N-(4-(methylsulfonyl)phenyl)-2,6-naphthyridin-3-amine]"
< 6.60,6.60 to 7.60,< 6.60,< 6.60,–,–,–,–,–,"CS(=O)(=O)c1ccc(Nc2cc3c(C#Cc4n[nH]c5c(F)cccc45)nccc3cn2)cc1 [Ex 503, 5-((7-fluoro-1H-indazol-3-yl)ethynyl)-N-(4-(methylsulfonyl)phenyl)-2,6-naphthyridin-3-amine]"
< 6.60,6.60 to 7.60,< 6.60,< 6.60,–,–,–,–,–,"CC(=O)Nc1ncc(C#Cc2nccc3cnc(Nc4ccc(S(C)(=O)=O)cc4)cc23)s1 [Ex 505, N-(5-((7-((4-(methylsulfonyl)phenyl)amino)-2,6-naphthyridin-1-yl)ethynyl)thiazol-2-yl)acetamide]"
< 6.60,–,< 6.60,< 6.60,–,–,–,–,< 6.60,"Cc1cnc(C#Cc2nccc3cnc(Nc4ccc(S(C)(=O)=O)cc4)cc23)cn1 [Ex 507, 5-((5-methylpyrazin-2-yl)ethynyl)-N-(4-(methylsulfonyl)phenyl)-2,6-naphthyridin-3-amine]"
< 6.60,6.60 to 7.60,< 6.60,< 6.60,–,–,–,–,–,"Cc1cnc(F)cc1C#Cc1nccc2cnc(Nc3ccc(S(C)(=O)=O)cc3)cc12 [Ex 509, 5-((2-fluoro-5-methylpyridin-4-yl)ethynyl)-N-(4-(methylsulfonyl)phenyl)-2,6-naphthyridin-3-amine]"
< 6.60,–,< 6.60,< 6.60,–,–,–,–,< 6.60,"COc1ccc(C#Cc2nccc3cnc(Nc4ccc(S(C)(=O)=O)cc4)cc23)nn1 [Ex 514, 5-((6-methoxypyridazin-3-yl)ethynyl)-N-(4-(methylsulfonyl)phenyl)-2,6-naphthyridin-3-amine]"
< 6.60,6.60 to 7.60,< 6.60,< 6.60,–,–,–,–,–,"Cn1cc(C#Cc2nccc3cnc(Nc4ccc(S(C)(=O)=O)cc4)cc23)ncc1=O [Ex 515, 1-methyl-5-((7-((4-(methylsulfonyl)phenyl)amino)-2,6-naphthyridin-1-yl)ethynyl)pyrazin-2(1H)-one]"
< 6.60,–,< 6.60,< 6.60,–,–,–,–,< 6.60,"CS(=O)(=O)c1ccc(Nc2cc3c(C#Cc4nccc5[nH]ccc45)nccc3cn2)cc1 [Ex 516, 5-((1H-pyrrolo[3,2-c]pyridin-4-yl)ethynyl)-N-(4-(methylsulfonyl)phenyl)-2,6-naphthyridin-3-amine]"
< 6.60,6.60 to 7.60,< 6.60,< 6.60,–,–,–,–,–,"CS(=O)(=O)c1ccc(Nc2cc3c(C#Cc4ccc(Cl)c(F)c4N)nccc3cn2)cc1 [Ex 530, 5-((2-amino-4-chloro-3-fluorophenyl)ethynyl)-N-(4-(methylsulfonyl)phenyl)-2,6-naphthyridin-3-amine]"
